Measured values published in article PMC2782546 (Chemical biology & drug design, 2009).
Like-named read-outs stand apart in the source and are kept apart here. Blank lines part the entries; values can stand above or below the compound they belong to. The star is where a group is joined. Lys(Fam) = Lys(Fam): lysine whose ε-amino group carries Fam (fluorescein), added using fluorescein-5-isothiocyanate; Dnp = O=[N+]([O-])c1ccc(*)c([N+](=O)[O-])c1; Mca = COc1ccc2c(CC(=O)*)cc(=O)oc2c1

What was measured:
ADAMTS-4 [1] = conditions: ADAMTS-4 aggrecanase activity; cited from earlier work
ADAMTS-1 = ADAMTS-1 aggrecanase activity; cited from earlier work
MMP-1 [2] = conditions: MMP-1, inhibitor concentration 50 μM; cited from earlier work
MMP-13 = conditions: MMP-13, inhibitor concentration 50 μM; cited from earlier work
ADAM-10 = conditions: ADAM-10, inhibitor concentration 50 μM; cited from earlier work
ADAMTS-5 [3] = biological target: T1, ADAMTS-5 (Homo sapiens, UniProt Q9UNA0); experiment: ADAMTS-5 inhibition, RP-HPLC analysis of cleavage products; assay type: biochemical; conditions: ADAMTS-5, data not shown
T1 sequence (Q9UNA0 262-731 limits assumed): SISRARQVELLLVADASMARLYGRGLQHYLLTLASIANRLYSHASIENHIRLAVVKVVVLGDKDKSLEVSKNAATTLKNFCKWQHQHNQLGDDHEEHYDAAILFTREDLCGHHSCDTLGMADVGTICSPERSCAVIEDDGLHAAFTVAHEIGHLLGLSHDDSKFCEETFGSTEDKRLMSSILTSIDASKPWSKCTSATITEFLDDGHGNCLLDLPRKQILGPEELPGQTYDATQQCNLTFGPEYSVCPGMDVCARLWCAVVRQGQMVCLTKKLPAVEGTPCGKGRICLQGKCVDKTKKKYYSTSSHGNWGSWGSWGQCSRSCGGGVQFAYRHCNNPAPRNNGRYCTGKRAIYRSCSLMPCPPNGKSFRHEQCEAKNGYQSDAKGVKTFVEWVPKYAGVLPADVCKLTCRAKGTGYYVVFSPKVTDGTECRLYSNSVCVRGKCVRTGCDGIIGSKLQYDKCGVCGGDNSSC

MMP-2 [4] = biological target: T2, MMP-2 (Homo sapiens, UniProt P08253); experiment: MMP-2 inhibition assay with FRET substrates; assay type: biochemical
T2 sequence (P08253 110-660): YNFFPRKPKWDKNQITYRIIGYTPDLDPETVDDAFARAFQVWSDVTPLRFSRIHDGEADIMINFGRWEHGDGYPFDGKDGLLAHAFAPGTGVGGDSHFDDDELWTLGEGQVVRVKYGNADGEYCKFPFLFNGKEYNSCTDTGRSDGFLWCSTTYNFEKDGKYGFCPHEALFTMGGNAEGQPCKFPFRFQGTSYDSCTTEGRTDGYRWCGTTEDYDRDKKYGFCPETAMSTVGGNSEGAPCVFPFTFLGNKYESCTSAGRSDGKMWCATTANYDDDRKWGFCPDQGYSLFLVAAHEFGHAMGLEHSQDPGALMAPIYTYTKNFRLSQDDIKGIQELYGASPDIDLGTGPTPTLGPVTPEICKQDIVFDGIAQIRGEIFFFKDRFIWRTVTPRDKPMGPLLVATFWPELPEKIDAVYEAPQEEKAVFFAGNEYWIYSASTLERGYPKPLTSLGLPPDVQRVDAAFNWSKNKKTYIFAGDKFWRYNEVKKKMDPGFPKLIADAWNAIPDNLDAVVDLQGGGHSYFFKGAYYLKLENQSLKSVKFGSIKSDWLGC

ADAMTS-5 [5] = biological target: T1, ADAMTS-5; experiment: ADAMTS-5 inhibition assay, FRET substrate hydrolysis; assay type: biochemical
MMP-8 [6] = biological target: T3, MMP-8 (Homo sapiens, UniProt P22894); experiment: MMP-8 inhibition assay with FRET substrates; assay type: biochemical
T3 sequence (P22894 101-467, species assumed): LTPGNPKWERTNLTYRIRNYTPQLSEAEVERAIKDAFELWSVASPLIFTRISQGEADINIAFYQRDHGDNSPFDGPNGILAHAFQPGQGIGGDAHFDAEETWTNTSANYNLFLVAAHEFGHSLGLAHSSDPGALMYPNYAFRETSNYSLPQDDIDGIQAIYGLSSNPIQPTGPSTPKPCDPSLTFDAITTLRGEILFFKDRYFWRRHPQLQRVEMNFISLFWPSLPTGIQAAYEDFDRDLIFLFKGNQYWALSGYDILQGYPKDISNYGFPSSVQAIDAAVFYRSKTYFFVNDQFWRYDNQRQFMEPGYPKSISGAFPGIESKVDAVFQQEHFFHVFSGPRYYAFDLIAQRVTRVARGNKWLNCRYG

MMP-9 [7] = biological target: T4, MMP-9 (Homo sapiens, UniProt P14780); experiment: MMP-9 inhibition assay with FRET substrates; assay type: biochemical; conditions: MMP-9, substrate fMMPSlong
T4 sequence (P14780 94-707, species assumed): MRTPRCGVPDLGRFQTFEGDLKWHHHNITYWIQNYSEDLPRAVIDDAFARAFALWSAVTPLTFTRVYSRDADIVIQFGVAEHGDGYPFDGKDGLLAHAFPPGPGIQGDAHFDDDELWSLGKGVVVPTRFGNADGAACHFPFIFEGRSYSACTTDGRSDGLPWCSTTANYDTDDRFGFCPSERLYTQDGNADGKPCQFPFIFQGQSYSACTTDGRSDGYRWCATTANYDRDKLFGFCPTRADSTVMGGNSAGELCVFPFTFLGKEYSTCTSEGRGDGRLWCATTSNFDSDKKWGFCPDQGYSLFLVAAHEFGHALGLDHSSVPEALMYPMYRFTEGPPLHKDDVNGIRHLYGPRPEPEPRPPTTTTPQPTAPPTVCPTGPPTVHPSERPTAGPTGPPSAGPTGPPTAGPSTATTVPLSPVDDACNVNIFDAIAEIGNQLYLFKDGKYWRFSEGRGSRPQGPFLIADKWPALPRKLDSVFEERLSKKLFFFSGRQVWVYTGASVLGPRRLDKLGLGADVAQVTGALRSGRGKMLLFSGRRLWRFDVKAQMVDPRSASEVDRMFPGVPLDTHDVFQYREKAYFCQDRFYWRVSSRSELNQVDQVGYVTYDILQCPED

MMP-12 [8] = biological target: T5, MMP-12 (Homo sapiens, UniProt P39900); experiment: MMP-12 inhibition assay with FRET substrates; assay type: biochemical; conditions: MMP-12, substrate fMMPSshort
T5 sequence (P39900 106-470, species assumed): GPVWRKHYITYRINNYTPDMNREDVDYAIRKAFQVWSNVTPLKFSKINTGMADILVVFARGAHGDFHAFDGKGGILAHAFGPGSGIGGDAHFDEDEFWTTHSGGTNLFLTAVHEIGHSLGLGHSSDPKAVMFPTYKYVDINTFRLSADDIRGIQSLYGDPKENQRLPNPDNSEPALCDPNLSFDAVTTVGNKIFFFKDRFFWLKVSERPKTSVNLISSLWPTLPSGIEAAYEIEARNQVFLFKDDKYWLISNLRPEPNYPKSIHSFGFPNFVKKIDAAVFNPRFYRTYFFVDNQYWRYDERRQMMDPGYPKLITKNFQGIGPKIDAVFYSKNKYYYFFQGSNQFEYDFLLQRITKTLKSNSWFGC

MMP-2 [9] = biological target: T2, MMP-2; conditions: cited from earlier work
MMP-7 = conditions: cited from earlier work
MMP-9 [10] = biological target: T4, MMP-9; conditions: cited from earlier work
MT1-MMP = conditions: cited from earlier work
MMP-2 [11] = biological target: T2, MMP-2; conditions: cited from earlier work; remark: listed apart in the source
MMP-1 [12] = conditions: cited from earlier work
MMP-8 [13] = biological target: T3, MMP-8; conditions: read-out: KM value for MMP hydrolysis; cited from earlier work
MMP-2 [14] = biological target: T2, MMP-2; conditions: read-out: KM value for MMP hydrolysis; cited from earlier work
ADAMTS-4 (aggrecanase-1) [15] = biological target: T6, ADAMTS-4 (aggrecanase-1) (Homo sapiens, UniProt O75173); experiment: ADAMTS-4 inhibition assay, FRET substrate hydrolysis; assay type: biochemical
T6 sequence (O75173 213-685 limits assumed): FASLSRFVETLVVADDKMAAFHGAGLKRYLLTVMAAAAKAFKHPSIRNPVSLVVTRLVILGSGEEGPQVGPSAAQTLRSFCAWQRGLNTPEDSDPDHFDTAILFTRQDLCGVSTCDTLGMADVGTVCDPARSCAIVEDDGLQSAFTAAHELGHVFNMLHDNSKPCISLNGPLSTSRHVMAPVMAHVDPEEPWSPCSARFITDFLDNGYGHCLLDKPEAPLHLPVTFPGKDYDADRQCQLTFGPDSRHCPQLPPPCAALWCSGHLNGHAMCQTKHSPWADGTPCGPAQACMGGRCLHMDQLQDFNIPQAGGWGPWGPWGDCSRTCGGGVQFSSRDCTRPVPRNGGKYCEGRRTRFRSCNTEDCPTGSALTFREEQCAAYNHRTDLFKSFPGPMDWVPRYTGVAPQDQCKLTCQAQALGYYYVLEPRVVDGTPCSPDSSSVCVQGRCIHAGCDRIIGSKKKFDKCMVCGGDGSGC

ADAMTS-4 (aggrecanase-1) [16] = biological target: T6, ADAMTS-4 (aggrecanase-1); experiment: ADAMTS-4 inhibition, RP-HPLC analysis of cleavage products
MMP-9 [17] = biological target: T4, MMP-9; conditions: cited from earlier work; remark: listed apart in the source
MMP-9 [18] = biological target: T4, MMP-9; conditions: read-out: KM value for MMP hydrolysis; cited from earlier work
MMP-12 [19] = biological target: T5, MMP-12; conditions: read-out: KM value for MMP hydrolysis; cited from earlier work
ADAMTS-4 [20] = conditions: read-out: KM value for ADAMTS-4 hydrolysis; substrate kinetics; cited from earlier work

Compound: O=C(O[C@@H]1Cc2c(O)cc(O)cc2O[C@@H]1c1ccc(O)c(O)c1)c1cc(O)c(O)c(O)c1 [Compound 2, (−)-epicatechin gallate]
IC50 (ADAMTS-4 [1]): 0.1 to 0.15 µM
IC50 (ADAMTS-1): 0.2 to 0.25 µM
inhibition (MMP-1 [2]): 14–30%
inhibition (MMP-13): 14–30%
inhibition (ADAM-10): 14–30%

inhibition of substrate hydrolysis by RP-HPLC analysis (ADAMTS-5 [3]): inhibited
Ki (MMP-2 [4]; MMP-2, substrate fMMPSlong): 10 ± 0.89 µM
Ki (MMP-2 [4]; MMP-2, substrate fMMPSshort): 12.2 ± 1.82 µM
Compound: Oc1cc(O)cc(/C=C/c2ccc(O)c(O)c2)c1 [Compound 3, (E)-4-[2-(3,5-dihydroxyphenyl)ethenyl]1,2-benzediol]

inhibition of substrate hydrolysis by fluorescence analysis (ADAMTS-5 [5]; ADAMTS-5, data not shown): inhibited
Ki (ADAMTS-5 [5]; Ki, ADAMTS-5, substrate fTSSshort, apparent Ki): 36.9 ± 8.82 µM
inhibition of substrate hydrolysis by RP-HPLC analysis (ADAMTS-5 [3]): inhibited
Ki (MMP-2 [4]; MMP-2, substrate fMMPSshort): 11.3 ± 0.52 µM
Ki (MMP-8 [6]): 10.3 ± 0.94 µM
Ki (MMP-9 [7]): 8.29 ± 0.63 µM
Ki (MMP-12 [8]): 34.4 ± 3.99 µM
Compound: Oc1cccc(O)c1O [Compound 10, 1,2,3-trihydroxybenzene]

Compound: O=C(O[C@@H]1Cc2c(O)cc(O)cc2O[C@@H]1c1cc(O)c(O)c(O)c1)c1cc(O)c(O)c(O)c1 [Compound 1, (−)-epigallocatechin gallate]
IC50 (ADAMTS-4 [1]): 0.1 to 0.15 µM
IC50 (ADAMTS-1): 0.2 to 0.25 µM
IC50 (MMP-2 [9]; MMP-2): 6 to 8 µM
IC50 (MMP-7): 1.6 µM
IC50 (MMP-9 [10]; MMP-9): 0.8 to 13 µM
IC50 (MT1-MMP): 0.019 µM
inhibition (MMP-1 [2]): 14–30%
inhibition (MMP-13): 14–30%
inhibition (ADAM-10): 14–30%

Compound: O=c1cc(-c2ccc(O)cc2)oc2cc(O)cc(O)c12 [apigenin]
EC50 (MMP-2 [11]): 7.5 µM
IC50 (MMP-1 [12]): > 100 µM

Compound: O=c1c(O)c(-c2ccc(O)cc2)oc2cc(O)cc(O)c12 [kaempferol]
IC50 (MMP-1 [12]): 43.7 µM

Compound: (Gly-Pro-Hyp)5-Gly-Pro-Lys(Mca)-Gly-Pro-Gln-Gly~Leu-Arg-Gly-Gln-Lys(Dnp)-Gly-Val-Arg-(Gly-Pro-Hyp)5-NH2 [fMMPSlong]
Km (MMP-8 [13]): 7.6 µM
Km (MMP-2 [14]): 17.2 µM

IC50 (ADAMTS-4 (aggrecanase-1) [15]): 20 µM
IC50 (ADAMTS-4 (aggrecanase-1) [16]): > 100 µM
Compound: COc1ccc(/C=C/c2cc(O)cc(OC3OC(CO)C(O)C(O)C3O)c2)cc1 (stereo not shown) [Compound 7, 2-[3-hydroxy-5-[(E)-2-(4-methoxyphenyl)ethenyl]phenoxy]-6-(hydroxymethyl)oxane-3,4,5-triol]

Compound: O=c1cc(-c2ccc(O)c(O)c2)oc2cc(O)cc(O)c12 [luteolin]
Ki (MMP-9 [17]; MMP-9, noncompetitive mechanism): 5.4 µM

Compound: Mca-Lys-Pro-Leu-Gly-Leu-Lys(Dnp)-Ala-Arg-NH2 (Mca-KPLGLK(Dnp)AR-NH2; SMILES COc1ccc2c(CC(=O)N[C@@H](CCCCN)C(=O)N3CCC[C@H]3C(=O)N[C@@H](CC(C)C)C(=O)NCC(=O)N[C@@H](CC(C)C)C(=O)N[C@@H](CCCCNc3ccc([N+](=O)[O-])cc3[N+](=O)[O-])C(=O)N[C@@H](C)C(=O)N[C@@H](CCCNC(=N)N)C(N)=O)cc(=O)oc2c1) [fMMPSshort]
Km (MMP-9 [18]): 27.7 µM
Km (MMP-12 [19]): 130 µM

IC50 (ADAMTS-4 (aggrecanase-1) [15]): 20 µM
IC50 (ADAMTS-4 (aggrecanase-1) [16]): > 100 µM
Compound: Oc1ccccc1O [Compound 9, 1,2-dihydroxybenzene]

Compound: O=c1c(O)c(-c2ccc(O)c(O)c2)oc2cc(O)cc(O)c12 [quercetin]
IC50 (MMP-1 [12]): 39.6 µM

Compound: O=c1cc(-c2ccc(O)c(O)c2)oc2cc(O[C@@H]3O[C@H](CO)[C@@H](O)[C@H](O)[C@H]3O)cc(O)c12 [luteolin-7-O-glucoside]
EC50 (MMP-9 [17]; MMP-9): 4.6 µM

IC50 (ADAMTS-4 (aggrecanase-1) [15]): ~100 µM
IC50 (ADAMTS-4 (aggrecanase-1) [16]): > 100 µM
Compound: C(=C/c1ccccc1)/c1ccccc1 [Compound 6, cis-1,2-diphenylethylene]

IC50 (ADAMTS-4 (aggrecanase-1) [15]): 50 µM
IC50 (ADAMTS-4 (aggrecanase-1) [16]): > 100 µM
Compound: COc1ccc(C=Cc2cc(O)cc(OC3OC(CO)C(O)C(O)C3O)c2)cc1O (stereo not shown) [Compound 8, 2-[3-hydroxy-5-[2-(3-hydroxy-4-methoxyphenyl)ethenyl]phenoxy]-6-(hydroxymethyl)oxane-3,4,5-triol]

IC50 (ADAMTS-4 (aggrecanase-1) [15]): 50 µM
IC50 (ADAMTS-4 (aggrecanase-1) [16]): > 100 µM
Compound: Oc1ccc(/C=C/c2cc(O)cc(O)c2)cc1 [Compound 4, 5-[(1E)-2-(4-hydroxyphenyl)ethenyl]-1,3-benzenediol]
inhibition of MMP-2 (MMP-2 [9]; prior study): not an inhibitor
inhibition of MMP-9 (MMP-9 [10]; prior study): not an inhibitor

Compound: Lys(Fam)-Asp-Val-Gln-Glu-Phe-Arg-Gly-Val-Thr-Ala-Val-Ile-Arg-Lys(Tamra)-Lys-Gly-Lys-NH2 ({Lys(Fam)}-DVQEFRGVTAVIRK(Tamra)KGK-NH2) [fTSS1]
Km (ADAMTS-4 [20]): ~35 µM

IC50 (ADAMTS-4 (aggrecanase-1) [15]): > 100 µM
IC50 (ADAMTS-4 (aggrecanase-1) [16]): > 100 µM
Compound: C(=C\c1ccccc1)/c1ccccc1 [Compound 5, trans-1,2-diphenylethylene]
